Test results from patent US20080004253A1, “Thiazolopyrimidine modulators of TRPV1” (priority 2006, published 2008).

Columns and labels:
human TRPV1 = target: T1, human TRPV1 (Homo sapiens, UniProt Q8NER1); assay: Functional assay: block of capsaicin-induced Ca2+ influx, human assay (hTRPV1/HEK293, FLIPR); format: cell-based; conditions: hTRPV1/HEK293 cells, 150 nM capsaicin challenge, Fluo-3 fluorescence; mean; > value = solubility limit in assay medium
T1 construct: expressed in transfected cells; host or cells: HEK293 (hTRPV1/HEK293), zeocin selection
T1 sequence (Q8NER1 whole entry): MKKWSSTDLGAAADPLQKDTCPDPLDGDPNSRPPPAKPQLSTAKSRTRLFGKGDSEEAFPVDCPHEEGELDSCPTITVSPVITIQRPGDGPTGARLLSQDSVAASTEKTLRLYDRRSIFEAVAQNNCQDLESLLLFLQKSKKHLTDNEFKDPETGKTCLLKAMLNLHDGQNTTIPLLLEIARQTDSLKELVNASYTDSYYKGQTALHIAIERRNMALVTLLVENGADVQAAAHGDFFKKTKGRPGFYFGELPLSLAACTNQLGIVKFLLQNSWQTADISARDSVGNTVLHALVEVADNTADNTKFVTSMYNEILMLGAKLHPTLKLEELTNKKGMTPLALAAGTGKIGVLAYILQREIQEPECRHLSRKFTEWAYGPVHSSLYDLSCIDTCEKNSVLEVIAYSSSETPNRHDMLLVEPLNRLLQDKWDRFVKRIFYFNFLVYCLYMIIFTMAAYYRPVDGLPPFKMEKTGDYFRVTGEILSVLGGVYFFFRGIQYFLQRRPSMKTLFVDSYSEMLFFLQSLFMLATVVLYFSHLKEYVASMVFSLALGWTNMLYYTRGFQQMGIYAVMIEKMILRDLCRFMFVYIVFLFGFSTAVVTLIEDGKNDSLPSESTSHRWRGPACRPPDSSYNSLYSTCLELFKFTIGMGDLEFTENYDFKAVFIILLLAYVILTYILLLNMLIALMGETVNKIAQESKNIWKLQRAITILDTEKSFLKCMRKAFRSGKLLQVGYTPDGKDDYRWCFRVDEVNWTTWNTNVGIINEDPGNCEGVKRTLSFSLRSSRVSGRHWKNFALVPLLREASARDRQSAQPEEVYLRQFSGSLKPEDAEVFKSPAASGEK
Procedure: (§1) Functional assay: block of capsaicin-induced Ca^2+ influx
(§2) HEK293 cells were transfected with human TRPV1 cloned in pcDNA3.1zeo(+) using the Effectene non-liposomal lipid based transfection kit (Qiagen) (hTRPV1/HEK293). hTRPV1/HEK293 cells were routinely grown as monolayers under selection in zeocin (200 μg/mL; Invitrogen) in Dulbecco's Modified Eagle Medium (DMEM, Gibco BRL) supplemented with 10% fetal bovine serum, and penicillin/streptomycin (50 units/mL) in 5% CO2 at 37° C. Cells were passaged frequently, every 3-5 days, to avoid overgrowth, depletion of essential medium components, or acidic medium exposure. Cells were passaged using a brief wash in 0.05% trypsin with 1 mM EDTA, followed by dissociation in divalent-free phosphate-buffered saline (Hyclone #SH30028.02). […] The assay buffer was composed of 130 mM NaCl, 2 mM KCl, 2 mM MgCl2, 10 mM HEPES, 5 mM glucose, and either 2 mM or 20 μM CaCl2. On the day of the experiment, the culture medium was replaced with 2 mM calcium assay buffer using an automated plate washer (ELx405; Biotek, VT). […] After loading the cells, the dye solution was replaced with 50 μL/well of 20 μM calcium assay buffer using the ELx405 plate washer. Test compounds (50 μL/well) were added to the plate and incubated for 30 min. […] The IC50 values were determined. […] The contents of the wells were mixed 3 times (40 μL mix volume) immediately after the additions were made. Concentration-dependence of block was determined by exposing each well of cells in duplicate rows of a 96-well plate to a serial dilution of test compound. The concentration series usually started at 10 μM with a three-fold serial decrement in concentration. The magnitude of the capsaicin response was determined by measuring the change in fluo3 fluorescence before and 100 seconds after the addition of the agonist. Data were analyzed using a non-linear regression program (Origin; OriginLab, MA).
(§3) IC50 values shown are the average (mean) of the results obtained. […] Compounds were tested in either the free base or trifluoroacetic acid salt form.

rat TRPV1 = target: T2, rat TRPV1 (Rattus norvegicus, UniProt O35433); assay: Functional assay: block of capsaicin-induced Ca2+ influx, rat assay (rTRPV1/HEK293, FLIPR); format: cell-based; conditions: rTRPV1/HEK293 cells, capsaicin challenge, Fluo-3 fluorescence; mean; > value = solubility limit in assay medium
T2 construct: expressed in transfected cells; host or cells: HEK293 (rTRPV1/HEK293), geneticin selection
T2 sequence (O35433 whole entry): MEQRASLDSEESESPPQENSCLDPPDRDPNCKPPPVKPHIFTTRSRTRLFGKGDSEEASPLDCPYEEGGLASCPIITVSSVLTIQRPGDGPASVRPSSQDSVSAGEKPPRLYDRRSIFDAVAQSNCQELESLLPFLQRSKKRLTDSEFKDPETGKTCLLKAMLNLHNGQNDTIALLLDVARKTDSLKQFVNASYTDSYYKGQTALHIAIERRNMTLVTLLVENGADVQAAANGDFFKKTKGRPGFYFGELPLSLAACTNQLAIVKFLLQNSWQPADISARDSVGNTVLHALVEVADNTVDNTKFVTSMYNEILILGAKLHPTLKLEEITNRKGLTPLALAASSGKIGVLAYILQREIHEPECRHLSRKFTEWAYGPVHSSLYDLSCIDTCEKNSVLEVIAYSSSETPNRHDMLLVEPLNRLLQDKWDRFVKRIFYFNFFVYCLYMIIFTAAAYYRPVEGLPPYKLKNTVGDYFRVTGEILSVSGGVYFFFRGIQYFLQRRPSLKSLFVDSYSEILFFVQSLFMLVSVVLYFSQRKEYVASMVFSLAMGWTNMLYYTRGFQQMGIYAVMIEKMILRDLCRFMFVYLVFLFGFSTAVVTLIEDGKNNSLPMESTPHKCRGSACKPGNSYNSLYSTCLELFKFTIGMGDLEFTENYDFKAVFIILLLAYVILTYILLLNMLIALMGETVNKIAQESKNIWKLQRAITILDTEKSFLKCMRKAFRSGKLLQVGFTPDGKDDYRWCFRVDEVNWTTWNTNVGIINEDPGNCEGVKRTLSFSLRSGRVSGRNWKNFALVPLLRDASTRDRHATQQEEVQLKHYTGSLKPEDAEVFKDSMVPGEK
Procedure: as §1, §2
This assay was performed similarly to the human assay described above, but using HEK293 cells transfected with rat TRPV1 (rTRPV1/HEK293).
as §3

SMILES | IC50 (human TRPV1) [nM] | IC50 (rat TRPV1) [nM]
Cc1nc(Nc2ccc(C(C)(C)C)cc2)c2nc(Nc3c(Cl)cccc3Cl)sc2n1 [Example 7, N^7-(4-tert-Butyl-phenyl)-N^2-(2,6-dichloro-phenyl)-5-methyl-thiazolo[5,4-d]pyrimidine-2,7-diamine] | 5 | 1
Cc1nc(N(C)c2ccc(C(F)(F)F)cc2)c2nc(Nc3c(Cl)cccc3Cl)sc2n1 [Example 9, N^2-(2,6-Dichloro-phenyl)-5,N^7-dimethyl-N^7-(4-trifluoromethyl-phenyl)-thiazolo[5,4-d]pyrimidine-2,7-diamine] | > 20000 | > 20000
Cc1cccc(C)c1Nc1nc2c(Nc3ccc(C(F)(F)F)cc3)ncnc2s1 [Example 10, N^2-(2,6-Dimethyl-phenyl)-N^7-(4-trifluoromethyl-phenyl)thiazolo[5,4,d]pyrimidine-2,7-diamine] | 26 | 6
Cc1cccc(C)c1Nc1nc2c(Nc3ccc(C(F)(F)F)nc3)ncnc2s1 [Example 11, N^2-(2,6-Dimethyl-phenyl)-N^7-(6-trifluoromethyl-pyridin-3-yl)-thiazolo[5,4-d]pyrimidine-2,7-diamine] | 23 | 7
Cc1cccc(C)c1Nc1nc2c(Nc3ccc(C(C)(C)C)cc3)ncnc2s1 [Example 12, N^7-(4-tert-Butyl-phenyl)-N^2-(2,6-dimethyl-phenyl)-thiazolo[5,4-d]pyrimidine-2,7-diamine] | 30 | 4
Cc1cccc(C)c1Nc1nc2c(Nc3ccc(C(F)(F)F)c(Cl)c3)ncnc2s1 [Example 13, N^7-(3-Chloro-4-trifluoromethyl-phenyl)-N^2-(2,6-dimethyl-phenyl)-thiazolo[5,4-d]pyrimidine-2,7-diamine] | 113 | 34
Cc1cccc(Cl)c1Nc1nc2c(Nc3ccc(C(F)(F)F)cc3)ncnc2s1 [Example 14, N^2-(2-Chloro-6-methyl-phenyl)-N^7-(4-trifluoromethyl-phenyl)-thiazolo[5,4-d]pyrimidine-2,7-diamine] | 11 | 1
Cc1cccc(Cl)c1Nc1nc2c(Nc3ccc(C(F)(F)F)nc3)ncnc2s1 [Example 15, N^2-(2-Chloro-6-methyl-phenyl)-N^7-(6-trifluoromethyl-pyridin-3-yl)-thiazolo[5,4-d]pyrimidine-2,7-diamine] | 13 | 5
FC(F)(F)c1ccc(Nc2ncnc3sc(Nc4ccccc4Cl)nc23)cc1 [Example 16, N^2-(2-Chloro-phenyl)-N^7-(4-trifluoromethyl-phenyl)-thiazolo[5,4-d]pyrimidine-2,7-diamine] | 92 | 39
Cc1ccccc1Nc1nc2c(Nc3ccc(C(F)(F)F)cc3)ncnc2s1 [Example 17, N^2-o-Tolyl-N^7-(4-trifluoromethyl-phenyl)-thiazolo[5,4-d]pyrimidine-2,7-diamine] | 70 | 19
FC(F)(F)c1ccc(Nc2ncnc3sc(Nc4c(Cl)cccc4C(F)(F)F)nc23)cc1 [Example 18, N^2-(2-Chloro-6-trifluoromethyl-phenyl)-N^7-(4-trifluoromethyl-phenyl)-thiazolo[5,4-d]pyrimidine-2,7-diamine] | 30 | 9
FC(F)(F)c1ccc(Nc2ncnc3sc(Nc4c(Cl)cccc4C(F)(F)F)nc23)cn1 [Example 19, N^2-(2-Chloro-6-trifluoromethyl-phenyl)-N^7-(6-trifluoromethyl-pyridin-3-yl)-thiazolo[5,4-d]pyrimidine-2,7-diamine] | 74 | 31
FC(F)(F)c1ccc(Nc2ncnc3sc(Nc4ccccc4)nc23)cc1 [Example 20, N^2-Phenyl-N^7-(4-trifluoromethyl-phenyl)-thiazolo[5,4-d]pyrimidine-2,7-diamine] | > 6670 | 2680
FC(F)(F)c1ccc(Nc2ncnc3sc(Nc4ccccc4)nc23)cn1 [Example 21, N^2-Phenyl-N^7-(6-trifluoromethyl-pyridin-3-yl)-thiazolo[5,4-d]pyrimidine-2,7-diamine] | 557 | 299
FC(F)(F)c1ccc(Nc2nc3c(Nc4ccc(C(F)(F)F)cc4)ncnc3s2)cc1 [Example 22, N^2,N^7-Bis-(4-trifluoromethyl-phenyl)-thiazolo[5,4-d]pyrimidine-2,7-diamine] | > 6670 | 1690
Cc1nc(Nc2ccc(C(F)(F)F)cc2)c2nc(N(C)c3c(Cl)cccc3Cl)sc2n1 [Example 23, N^2-(2,6-Dichloro-phenyl)-5,N^2-dimethyl-N^7-(4-trifluoromethyl-phenyl)-thiazolo[5,4-d]pyrimidine-2,7-diamine] | 1140 | 319
Cc1noc(C)c1Nc1nc2c(Nc3ccc(C(F)(F)F)nc3)ncnc2s1 [Example 24, N^2-(3,5-Dimethyl-isoxazol-4-yl)-N^7-(6-trifluoromethyl-pyridin-3-yl)-thiazolo[5,4-d]pyrimidine-2,7-diamine] | 2360 | 709
Cc1noc(C)c1Nc1nc2c(Nc3ccc(C(F)(F)F)cc3)ncnc2s1 [Example 25, N^2-(3,5-Dimethyl-isoxazol-4-yl)-N^7-(4-trifluoromethyl-phenyl)-thiazolo[5,4-d]pyrimidine-2,7-diamine] | 421 | 68
Cc1nc(Nc2ccc(C(F)(F)F)nc2)c2nc(Nc3c(-c4ccccc4)noc3C)sc2n1 [Example 26, 5-Methyl-N^2-(5-methyl-3-phenyl-isoxazol-4-yl)-N^7-(6-trifluoromethyl-pyridin-3-yl)-thiazolo[5,4-d]pyrimidine-2,7-diamine] | 208 | 55
Cc1nc(Nc2ccc(C(F)(F)F)cc2)c2nc(Nc3c(-c4ccccc4)noc3C)sc2n1 [Example 27, 5-Methyl-N^2-(5-methyl-3-phenyl-isoxazol-4-yl)-N^7-(4-trifluoromethyl-phenyl)-thiazolo[5,4-d]pyrimidine-2,7-diamine] | 91 | 25
Cc1cccc(C)c1Nc1nc2c(Nc3ccc(OC(F)(F)F)cc3)ncnc2s1 [Example 28, N^2-(2,6-Dimethyl-phenyl)-N^7-(4-trifluoromethoxy-phenyl)-thiazolo[5,4-d]pyrimidine-2,7-diamine] | 81 | 39
Cc1cccc(C)c1Nc1nc2c(Nc3ccc(C#N)nc3)ncnc2s1 [Example 29, 5-[2-(2,6-Dimethyl-phenylamino)-thiazolo[5,4-d]pyrimidin-7-ylamino]-pyridine-2-carbonitrile] | 207 | 178
Cc1nc(Nc2ccc(C(F)(F)F)c(Cl)c2)c2nc(Nc3c(Cl)cccc3Cl)sc2n1 [Example 30, N^7-(3-Chloro-4-trifluoromethyl-phenyl)-N^2-(2,6-dichloro-phenyl)-5-methyl-thiazolo[5,4-d]pyrimidine-2,7-diamine] | 3 | 3
Cc1cccc(C)c1Nc1nc2c(Nc3ccc(C#N)cc3)ncnc2s1 [Example 31, 4-[2-(2,6-Dimethyl-phenylamino)-thiazolo[5,4-d]pyrimidin-7-ylamino]-benzonitrile] | 40 | 33
Cc1cccc(C)c1Nc1nc2c(Nc3ccc(C(C)(C)C#N)cc3)ncnc2s1 [Example 32, 2-{4-[2-(2,6-Dimethyl-phenylamino)-thiazolo[5,4-d]pyrimidin-7-ylamino]-phenyl}-2-methyl-propionitrile] | 51 | 8
COc1ccc(Nc2ncnc3sc(Nc4c(C)cccc4C)nc23)cc1 [Example 33, N^2-(2,6-Dimethyl-phenyl)-N^7-(4-methoxy-phenyl)-thiazolo[5,4-d]pyrimidine-2,7-diamine] | 205 | 70
Cc1cccc(C)c1Nc1nc2c(Nc3ccc(Cl)c(Cl)c3)ncnc2s1 [Example 34, N^7-(3,4-Dichloro-phenyl)-N^2-(2,6-dimethyl-phenyl)-thiazolo[5,4-d]pyrimidine-2,7-diamine] | > 6670 | > 6670
Cc1ccc(Nc2ncnc3sc(Nc4c(C)cccc4C)nc23)cc1 [Example 35, N^2-(2,6-Dimethyl-phenyl)-N^7-p-tolyl-thiazolo[5,4-d]pyrimidine-2,7-diamine] | 31 | 10
Cc1cccc(C)c1Nc1nc2c(Nc3ccccc3C(F)(F)F)ncnc2s1 [Example 36, N^2-(2,6-Dimethyl-phenyl)-N^7-(2-trifluoromethyl-phenyl)-thiazolo[5,4-d]pyrimidine-2,7-diamine] | > 6670 | > 6670
